From article PMC6695594, “Discovery of (5-Phenylfuran-2-yl)methanamine Derivatives as New Human Sirtuin 2 Inhibitors” (Molecules, 2019)

Tests used:
[1] = target: T1, human sirtuin 2 (SIRT2) (Homo sapiens, UniProt Q8IXJ6); experiment: biochemical; set-up: Fluorogenic p2270 (Ac-Glu-Thr-Asp-Lys(Dec)-AMC) trypsin-coupled assay on recombinant human SIRT2, ex 380/em 460 nm; conditions: for inhibition at 10 µM: read-out: Inhibition% ^1/SIRT2-p2270 / @ 10 μM
T1 sequence (Q8IXJ6 2-389): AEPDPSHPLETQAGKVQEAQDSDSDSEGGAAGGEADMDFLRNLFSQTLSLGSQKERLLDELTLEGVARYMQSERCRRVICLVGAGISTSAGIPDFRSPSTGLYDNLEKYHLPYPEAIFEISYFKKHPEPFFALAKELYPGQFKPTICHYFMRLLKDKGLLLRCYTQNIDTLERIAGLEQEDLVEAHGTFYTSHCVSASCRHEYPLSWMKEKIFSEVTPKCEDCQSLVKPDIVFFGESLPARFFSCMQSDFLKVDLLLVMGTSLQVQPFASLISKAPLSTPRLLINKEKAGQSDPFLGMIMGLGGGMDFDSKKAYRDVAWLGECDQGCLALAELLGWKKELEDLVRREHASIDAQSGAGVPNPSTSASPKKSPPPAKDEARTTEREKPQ
Experimental: This study tested the inhibitory activities of the synthesized compounds against recombinant human SIRT2 proteins using a fluorogenic substrate p2270(Ac-Glu-Thr-Asp-Lys(Dec)-AMC)-coupled trypsin assay. The assay buffer is 25 mM Tris–HCl pH 8.0, 150 mM NaCl, and 10% glycerol. The test compounds were added to 60 μL of reaction mixture containing SIRT2 enzymes (0.2 μM), and each compound was prepared in a 3-fold dilution series (300 μM–15 nM) with the final DMSO concentration < 1%. After incubation at 25 °C for 30 min, the reaction started by the addition of the substrate p2270 ([…]) and NAD^+([…]) at 25 °C. After 2 h, 50 μL 3~4 U/μL trypsin and 4 mM nicotinamide were added to terminate the reaction, followed by further incubation for 30 min at 25 °C. The fluorescence intensity was measured using a microplate reader (λex = 380 nm, λem = 460 nm). All determinations were performed in triplicate. The IC50 values were obtained using GraphPad Prism software as described previously. The enzyme activity assays were performed using a fluorogenic-based method, and Ac-Glu-Thr-Asp-Lys(Dec)-AMC, termed p2270, was used as the substrate. The SAR studies with all of the synthesized (5-phenylfuran-2-yl)methanamine derivatives (Table 1 and Table 2) were carried out. The compounds bearing various linkers or different substituents (A moiety) at 3- or 4-position of the [compound left out] of (5-phenylfuran-2-yl)methanamine scaffold (Table 1) were firstly investigated.

[2] = target: T1, human sirtuin 2 (SIRT2); experiment: fluorogenic p2270 trypsin-coupled assay, recombinant human SIRT2; assay type: biochemical; conditions: read-out: Inhibition% ^1/SIRT2-p2270 / @ 100 μM
[3] = target: T1, human sirtuin 2 (SIRT2); experiment: as above; assay type: biochemical

Row | inhibition at 10 µM [1] [%] | inhibition at 100 µM ([1]; read-out: Inhibition% ^1/SIRT2-p2270 / @ 100 μM) [%] | inhibition at 100 µM [2] [%] | IC50 [3] [µM] | SMILES
1 | 33 ± 3 | – | 46 ± 4 | – | O=C(NCc1ccc(-c2ccc(C(=O)O)cc2)o1)Nc1ccccc1 [compound 21, 4-(5-((3-Phenylureido)methyl)furan-2-yl)benzoic Acid]
2 | 23 ± 3 | – | 44 ± 5 | – | O=C(O)c1ccc(-c2ccc(CNC(=S)Nc3ccccc3)o2)cc1 [compound 22, 4-(5-((3-Phenylthioureido)methyl)furan-2-yl)benzoic Acid]
3 | – | – | 43 ± 2 | – | O=C(NCc1ccc(-c2ccc(C(=O)O)c(O)c2)o1)Nc1ccccc1 [compound 24, 2-Hydroxy-4-(5-((3-phenylureido)methyl)furan-2-yl)benzoic Acid]
4 | – | – | – | 2.47 | O=C(NCc1ccc(-c2ccc(C(=O)O)cc2)o1)Nc1cccnc1 [compound 25, 4-(5-((3-(Pyridin-3-yl)ureido)methyl)furan-2-yl)benzoic Acid]

The next lines start with the molecule.

Row | SMILES | inhibition at 10 µM [1] [%] | inhibition at 100 µM ([1]; read-out: Inhibition% ^1/SIRT2-p2270 / @ 100 μM) [%] | inhibition at 100 µM [2] [%] | IC50 [3] [µM]
5 | N#C/C(=C\c1ccc(-c2cc(Cl)ccc2Cl)o1)C(=O)Nc1cccc2ncccc12 [AGK2] | 30 ± 5 | 80 ± 6 | – | –
6 | O=C(NCc1ccc(-c2cc(Cl)ccc2Cl)o1)Nc1cccc2ncccc12 [compound 12, 1-((5-(2,5-Dichlorophenyl)furan-2-yl)methyl)-3-(quinolin-5-yl)urea] | 33 ± 3 | – | 60 ± 3 | –
7 | CCOC(=O)c1ccc(-c2ccc(CNC(=O)Nc3cccnc3)o2)cc1 [compound 17, Ethyl 4-(5-((3-(pyridin-3-yl)ureido)methyl)furan-2-yl)benzoate] | – | – | 50 ± 4 | –
8 | O=C(NCc1ccc(-c2ccc(C(F)(F)F)cc2)o1)Nc1cccnc1 [compound 18, 1-(Pyridin-3-yl)-3-((5-(4-(trifluoromethyl)phenyl)furan-2-yl)methyl)urea] | – | – | 40 ± 5 | –
9 | O=C(NCc1ccc(-c2ccc(C(=O)O)cc2)o1)Nc1cccc2ncccc12 [compound 20, 4-(5-((3-(quinolin-5-yl)ureido)methyl)furan-2-yl)benzoic acid] | 35 ± 3 | – | 63 ± 5 | –
